Data from ChEMBL document CHEMBL1177794, “Broad spectrum alkynyl inhibitors of T315I Bcr-Abl” (Bioorg Med Chem Lett, 2010).

Experiments:
[1] = biological target: Angiopoietin-1 receptor (Homo sapiens) (UniProt Q02763); assay: Inhibition of TIE2 at 10 uM; values are per cent of control
[2] = biological target: Misshapen-like kinase 1 (Homo sapiens) (UniProt Q8N4C8); assay: Inhibition of MINK at 10 uM
[3] = biological target: Receptor tyrosine-protein kinase erbB-4 (Homo sapiens) (UniProt Q15303); assay: Inhibition of ERBB4 at 10 uM; values are per cent of control
[4] = biological target: Cytoplasmic tyrosine-protein kinase BMX (Homo sapiens) (UniProt P51813); assay: Inhibition of BMX at 10 uM; conditions: values are per cent of control
[5] = biological target: Cyclin-dependent kinase 11B (Homo sapiens) (UniProt P21127); assay: Inhibition of CDC2L1 at 10 uM; values are per cent of control
[6] = biological target: Calcium/calmodulin-dependent protein kinase type II subunit alpha (Homo sapiens) (UniProt Q9UQM7); assay: Inhibition of CAMK2A at 10 uM; conditions: values are per cent of control
[7] = biological target: Serine/threonine-protein kinase TAO2 (Homo sapiens) (UniProt Q9UL54); assay: Inhibition of TAOK2 at 10 uM
[8] = biological target: Mitogen-activated protein kinase kinase kinase 6 (Homo sapiens) (UniProt O95382); assay: Inhibition of ASK2 at 10 uM; conditions: values are per cent of control
[9] = biological target: Mitogen-activated protein kinase 3 (Homo sapiens) (UniProt P27361); assay: Inhibition of ERK1 at 10 uM; conditions: values are per cent of control
[10] = biological target: Homeodomain-interacting protein kinase 4 (Homo sapiens) (UniProt Q8NE63); assay: Inhibition of HIPK4 at 10 uM; conditions: values are per cent of control
[11] = biological target: Cyclin-dependent kinase 11A (Homo sapiens) (UniProt Q9UQ88); assay: Inhibition of CDC2L2 at 10 uM; conditions: values are per cent of control
[12] = test system: Phosphatidylinositol 4,5-bisphosphate 3-kinase catalytic subunit alpha isoform (Homo sapiens), P42336 [I800L]; assay: Inhibition of PIK3CA I800L mutant at 10 uM
[13] = biological target: Ephrin type-A receptor 7 (Homo sapiens) (UniProt Q15375); assay: Inhibition of EPHA7 at 10 uM; conditions: values are per cent of control
[14] = biological target: Serine/threonine-protein kinase DCLK1 (Homo sapiens) (UniProt O15075); assay: Inhibition of DCAMKL1 at 10 uM; values are per cent of control
[15] = biological target: Serine/threonine-protein kinase DCLK3 (Homo sapiens) (UniProt Q9C098); assay: Inhibition of DCAMKL3 at 10 uM; conditions: values are per cent of control
[16] = biological target: Activin receptor type-1-like (Homo sapiens) (UniProt P37023); assay: Inhibition of ACVRL1 at 10 uM; conditions: values are per cent of control
[17] = biological target: Citron Rho-interacting kinase (Homo sapiens) (UniProt O14578); assay: Inhibition of CIT at 10 uM; values are per cent of control
[18] = biological target: SRSF protein kinase 1 (Homo sapiens) (UniProt Q96SB4); assay: Inhibition of SRPK1 at 10 uM
[19] = biological target: Serine/threonine-protein kinase VRK2 (Homo sapiens) (UniProt Q86Y07); assay: Inhibition of VRK2 at 10 uM; conditions: values are per cent of control
[20] = biological target: Serine/threonine-protein kinase PRP4 homolog (Homo sapiens) (UniProt Q13523); assay: Inhibition of PRP4 at 10 uM
[21] = test system: Epidermal growth factor receptor (Homo sapiens), P00533 [L858R]; assay: Inhibition of EGFR L858R mutant at 10 uM; values are per cent of control
[22] = biological target: Dual specificity tyrosine-phosphorylation-regulated kinase 1A (Homo sapiens) (UniProt Q13627); assay: Inhibition of DYRK1A at 10 uM; conditions: values are per cent of control
[23] = test system: Tyrosine-protein kinase ABL1 (Homo sapiens), P00519 [E255K]; assay: Inhibition of phosphorylated ABL1 E255K mutant at 10 uM; conditions: values are per cent of control
[24] = biological target: Muscle, skeletal receptor tyrosine-protein kinase (Homo sapiens) (UniProt O15146); assay: Inhibition of MUSK at 10 uM
[25] = biological target: Dual specificity protein kinase CLK3 (Homo sapiens) (UniProt P49761); assay: Inhibition of CLK3 at 10 uM; conditions: values are per cent of control
[26] = biological target: Serine/threonine-protein kinase PLK1 (Homo sapiens) (UniProt P53350); assay: Inhibition of PLK1 at 10 uM
[27] = biological target: Serine/threonine-protein kinase mTOR (Homo sapiens) (UniProt P42345); assay: Inhibition of MTOR at 10 uM; values are per cent of control
[28] = biological target: Ephrin type-A receptor 3 (Homo sapiens) (UniProt P29320); assay: Inhibition of EPHA3 at 10 uM; conditions: values are per cent of control
[29] = biological target: Tyrosine-protein kinase Mer (Homo sapiens) (UniProt Q12866); assay: Inhibition of MERTK at 10 uM; conditions: values are per cent of control
[30] = biological target: Calcium/calmodulin-dependent protein kinase type IV (Homo sapiens) (UniProt Q16566); assay: Inhibition of CAMK4 at 10 uM; conditions: values are per cent of control
[31] = biological target: Mitogen-activated protein kinase kinase kinase 9 (Homo sapiens) (UniProt P80192); assay: Inhibition of MLK1 at 10 uM
[32] = biological target: Tyrosine-protein kinase CSK (Homo sapiens) (UniProt P41240); assay: Inhibition of CSK at 10 uM; values are per cent of control
[33] = biological target: Ankyrin repeat and protein kinase domain-containing protein 1 (Homo sapiens) (UniProt Q8NFD2); assay: Inhibition of ANKK1 at 10 uM; conditions: values are per cent of control
[34] = biological target: Phosphatidylinositol 4,5-bisphosphate 3-kinase catalytic subunit delta isoform (Homo sapiens) (UniProt O00329); assay: Inhibition of PIK3CD at 10 uM
[35] = biological target: Leukocyte tyrosine kinase receptor (Homo sapiens) (UniProt P29376); assay: Inhibition of LTK at 10 uM; conditions: values are per cent of control
[36] = biological target: Mitogen-activated protein kinase kinase kinase 13 (Homo sapiens) (UniProt O43283); assay: Inhibition of LZK at 10 uM; values are per cent of control
[37] = test system: Receptor-type tyrosine-protein kinase FLT3 (Homo sapiens), P36888 [D835H]; assay: Inhibition of FLT3 D835H mutant at 10 uM; conditions: values are per cent of control
[38] = biological target: Inhibitor of nuclear factor kappa-B kinase subunit epsilon (Homo sapiens) (UniProt Q14164); assay: Inhibition of IKK-epsilon at 10 uM; conditions: values are per cent of control
[39] = test system: Proto-oncogene tyrosine-protein kinase receptor Ret (Homo sapiens), P07949 [V804L]; assay: Inhibition of RET V804L mutant at 10 uM; values are per cent of control
[40] = biological target: 3-phosphoinositide-dependent protein kinase 1 (Homo sapiens) (UniProt O15530); assay: Inhibition of PDPK1 at 10 uM
[41] = biological target: Tyrosine-protein kinase JAK3 (Homo sapiens) (UniProt P52333); assay: Inhibition of JAK3 JH1 catalytic domain at 10 uM; values are per cent of control

Sequence of Tyrosine-protein kinase ABL1 (Homo sapiens), P00519 [E255K] (P00519 whole entry E255K): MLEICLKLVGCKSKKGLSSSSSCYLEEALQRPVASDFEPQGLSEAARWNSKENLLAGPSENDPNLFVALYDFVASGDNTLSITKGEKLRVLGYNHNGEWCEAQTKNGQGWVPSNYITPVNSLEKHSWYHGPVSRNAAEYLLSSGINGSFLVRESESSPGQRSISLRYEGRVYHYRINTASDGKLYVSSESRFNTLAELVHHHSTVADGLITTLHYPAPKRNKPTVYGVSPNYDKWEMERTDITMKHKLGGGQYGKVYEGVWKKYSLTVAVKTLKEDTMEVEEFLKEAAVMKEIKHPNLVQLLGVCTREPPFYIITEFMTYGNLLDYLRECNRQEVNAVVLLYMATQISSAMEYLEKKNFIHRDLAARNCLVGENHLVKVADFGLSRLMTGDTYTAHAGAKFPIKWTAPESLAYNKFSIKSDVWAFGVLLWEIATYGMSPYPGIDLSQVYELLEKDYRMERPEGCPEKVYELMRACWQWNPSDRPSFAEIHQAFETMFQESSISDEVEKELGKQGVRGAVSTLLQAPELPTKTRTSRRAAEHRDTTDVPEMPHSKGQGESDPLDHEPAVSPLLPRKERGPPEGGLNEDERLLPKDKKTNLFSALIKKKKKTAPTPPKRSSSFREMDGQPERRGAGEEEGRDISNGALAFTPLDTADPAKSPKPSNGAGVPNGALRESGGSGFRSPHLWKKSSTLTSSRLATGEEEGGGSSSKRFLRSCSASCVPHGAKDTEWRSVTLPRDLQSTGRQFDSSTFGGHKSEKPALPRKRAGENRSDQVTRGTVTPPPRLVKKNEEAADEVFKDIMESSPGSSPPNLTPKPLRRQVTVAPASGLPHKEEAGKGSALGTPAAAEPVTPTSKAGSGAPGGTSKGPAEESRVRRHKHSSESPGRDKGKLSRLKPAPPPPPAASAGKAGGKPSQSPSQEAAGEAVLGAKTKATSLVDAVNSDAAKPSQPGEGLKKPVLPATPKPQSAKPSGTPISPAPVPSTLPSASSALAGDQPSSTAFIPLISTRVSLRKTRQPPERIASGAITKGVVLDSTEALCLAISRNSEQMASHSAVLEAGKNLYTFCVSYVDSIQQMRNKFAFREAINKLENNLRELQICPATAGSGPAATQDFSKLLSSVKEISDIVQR
Sequence of SRSF protein kinase 1 (Homo sapiens) (Q96SB4 whole entry): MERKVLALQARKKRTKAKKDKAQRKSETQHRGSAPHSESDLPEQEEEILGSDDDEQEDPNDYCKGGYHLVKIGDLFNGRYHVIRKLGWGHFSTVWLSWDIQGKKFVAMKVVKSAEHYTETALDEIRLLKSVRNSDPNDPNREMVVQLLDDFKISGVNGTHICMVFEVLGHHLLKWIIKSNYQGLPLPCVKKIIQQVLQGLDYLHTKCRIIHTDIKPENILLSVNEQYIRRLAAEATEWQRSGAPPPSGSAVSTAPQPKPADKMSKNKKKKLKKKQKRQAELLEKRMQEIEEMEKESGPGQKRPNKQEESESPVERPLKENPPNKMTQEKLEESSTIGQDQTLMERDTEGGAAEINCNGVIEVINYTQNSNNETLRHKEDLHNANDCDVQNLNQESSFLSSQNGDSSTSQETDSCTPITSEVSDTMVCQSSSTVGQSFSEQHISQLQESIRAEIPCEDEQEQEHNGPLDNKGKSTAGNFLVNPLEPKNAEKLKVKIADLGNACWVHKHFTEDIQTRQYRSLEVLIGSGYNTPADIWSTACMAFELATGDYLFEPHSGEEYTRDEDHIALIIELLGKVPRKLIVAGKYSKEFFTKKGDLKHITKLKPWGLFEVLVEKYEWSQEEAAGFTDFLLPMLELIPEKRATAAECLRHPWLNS
Sequence of Misshapen-like kinase 1 (Homo sapiens) (Q8N4C8 whole entry, looked up): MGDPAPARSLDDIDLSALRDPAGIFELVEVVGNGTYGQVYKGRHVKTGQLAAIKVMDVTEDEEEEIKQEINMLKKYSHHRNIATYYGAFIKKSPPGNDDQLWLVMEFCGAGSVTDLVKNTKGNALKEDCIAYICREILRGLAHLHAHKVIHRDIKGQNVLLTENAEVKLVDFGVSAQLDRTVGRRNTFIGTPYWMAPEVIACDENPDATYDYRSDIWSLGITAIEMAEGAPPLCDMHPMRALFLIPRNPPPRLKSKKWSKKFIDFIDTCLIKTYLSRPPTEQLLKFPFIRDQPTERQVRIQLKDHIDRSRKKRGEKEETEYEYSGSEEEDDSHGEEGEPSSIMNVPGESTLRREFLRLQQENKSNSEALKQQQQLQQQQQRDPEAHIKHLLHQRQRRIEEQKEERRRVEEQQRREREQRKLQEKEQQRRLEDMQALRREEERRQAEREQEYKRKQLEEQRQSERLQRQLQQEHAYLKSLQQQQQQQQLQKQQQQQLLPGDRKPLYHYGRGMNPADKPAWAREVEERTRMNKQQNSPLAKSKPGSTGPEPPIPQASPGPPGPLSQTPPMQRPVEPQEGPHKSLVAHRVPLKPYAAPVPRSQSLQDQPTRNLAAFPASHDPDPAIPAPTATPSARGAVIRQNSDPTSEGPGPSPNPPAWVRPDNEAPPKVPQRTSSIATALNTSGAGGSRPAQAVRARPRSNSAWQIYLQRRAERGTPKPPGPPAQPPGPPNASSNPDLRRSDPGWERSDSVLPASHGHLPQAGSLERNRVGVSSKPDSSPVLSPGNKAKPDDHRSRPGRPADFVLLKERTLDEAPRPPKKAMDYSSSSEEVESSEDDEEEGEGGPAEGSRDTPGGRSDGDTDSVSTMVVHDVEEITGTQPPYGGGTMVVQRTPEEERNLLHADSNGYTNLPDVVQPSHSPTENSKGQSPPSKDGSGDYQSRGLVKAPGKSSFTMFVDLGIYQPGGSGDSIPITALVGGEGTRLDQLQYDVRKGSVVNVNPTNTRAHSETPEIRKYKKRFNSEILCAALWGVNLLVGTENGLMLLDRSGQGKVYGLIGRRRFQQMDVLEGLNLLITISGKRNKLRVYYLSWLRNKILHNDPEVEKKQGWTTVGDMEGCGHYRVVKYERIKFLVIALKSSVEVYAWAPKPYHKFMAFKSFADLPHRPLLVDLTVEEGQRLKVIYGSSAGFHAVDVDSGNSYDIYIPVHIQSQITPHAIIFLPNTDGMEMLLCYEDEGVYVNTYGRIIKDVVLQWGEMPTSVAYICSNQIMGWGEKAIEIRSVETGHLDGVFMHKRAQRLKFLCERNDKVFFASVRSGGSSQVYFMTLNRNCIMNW
Sequence of Tyrosine-protein kinase CSK (Homo sapiens) (P41240 2-450 limits assumed): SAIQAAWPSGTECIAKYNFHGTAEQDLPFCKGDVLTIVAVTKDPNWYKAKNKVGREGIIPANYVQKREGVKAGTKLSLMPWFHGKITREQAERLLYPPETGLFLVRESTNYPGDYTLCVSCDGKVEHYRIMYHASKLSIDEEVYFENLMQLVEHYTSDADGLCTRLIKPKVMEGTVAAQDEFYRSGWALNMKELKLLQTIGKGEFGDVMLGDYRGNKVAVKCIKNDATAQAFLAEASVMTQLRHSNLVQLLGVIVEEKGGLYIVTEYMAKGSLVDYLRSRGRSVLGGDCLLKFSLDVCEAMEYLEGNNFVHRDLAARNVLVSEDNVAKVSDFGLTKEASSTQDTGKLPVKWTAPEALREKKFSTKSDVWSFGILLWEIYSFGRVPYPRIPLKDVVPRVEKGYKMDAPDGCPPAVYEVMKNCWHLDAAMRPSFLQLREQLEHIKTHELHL
Sequence of Muscle, skeletal receptor tyrosine-protein kinase (Homo sapiens) (O15146 whole entry): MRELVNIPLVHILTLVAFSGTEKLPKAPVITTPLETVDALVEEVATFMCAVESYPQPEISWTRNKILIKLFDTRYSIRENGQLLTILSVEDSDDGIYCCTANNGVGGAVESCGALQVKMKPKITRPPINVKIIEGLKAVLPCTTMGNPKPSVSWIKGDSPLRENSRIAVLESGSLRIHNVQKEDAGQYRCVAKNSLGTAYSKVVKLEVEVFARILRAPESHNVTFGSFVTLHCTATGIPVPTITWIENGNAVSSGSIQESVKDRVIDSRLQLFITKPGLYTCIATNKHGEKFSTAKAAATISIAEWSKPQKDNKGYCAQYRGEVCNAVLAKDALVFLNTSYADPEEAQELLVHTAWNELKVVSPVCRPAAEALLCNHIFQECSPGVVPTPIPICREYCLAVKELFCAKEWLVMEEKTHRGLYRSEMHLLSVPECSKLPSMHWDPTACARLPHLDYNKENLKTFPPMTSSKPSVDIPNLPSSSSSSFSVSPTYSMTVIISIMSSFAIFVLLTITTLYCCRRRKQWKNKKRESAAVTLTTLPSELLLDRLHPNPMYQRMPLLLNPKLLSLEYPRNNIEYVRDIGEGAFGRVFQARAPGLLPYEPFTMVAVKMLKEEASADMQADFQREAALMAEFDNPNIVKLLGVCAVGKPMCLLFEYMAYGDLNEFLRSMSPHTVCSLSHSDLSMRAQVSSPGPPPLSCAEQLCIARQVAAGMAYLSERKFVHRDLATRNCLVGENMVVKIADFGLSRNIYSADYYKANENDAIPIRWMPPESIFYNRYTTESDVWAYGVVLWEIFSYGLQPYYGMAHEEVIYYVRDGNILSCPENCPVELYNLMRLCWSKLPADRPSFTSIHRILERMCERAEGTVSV
Sequence of 3-phosphoinositide-dependent protein kinase 1 (Homo sapiens) (O15530 whole entry, the tested form may be a part): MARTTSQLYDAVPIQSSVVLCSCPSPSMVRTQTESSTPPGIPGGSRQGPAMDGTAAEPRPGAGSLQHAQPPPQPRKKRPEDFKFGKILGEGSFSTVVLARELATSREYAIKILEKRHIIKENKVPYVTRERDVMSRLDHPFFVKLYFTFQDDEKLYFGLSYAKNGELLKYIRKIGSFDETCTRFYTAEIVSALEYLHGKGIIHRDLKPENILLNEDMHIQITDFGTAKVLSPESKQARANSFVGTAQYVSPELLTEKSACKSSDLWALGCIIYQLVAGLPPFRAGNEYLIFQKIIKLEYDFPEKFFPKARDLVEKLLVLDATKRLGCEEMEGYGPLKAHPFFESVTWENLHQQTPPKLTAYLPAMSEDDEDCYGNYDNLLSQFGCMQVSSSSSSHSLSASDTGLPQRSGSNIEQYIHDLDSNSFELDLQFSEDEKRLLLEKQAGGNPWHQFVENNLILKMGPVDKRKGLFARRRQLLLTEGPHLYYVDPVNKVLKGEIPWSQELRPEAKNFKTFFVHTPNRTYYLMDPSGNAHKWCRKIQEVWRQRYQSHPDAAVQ

CCN1CCN(Cc2ccc(NC(=O)c3ccc(C)c(C#Cc4cnc5[nH]ccc5c4)c3)cc2C(F)(F)F)CC1 was tested, and the % of control [1] was 0%, the inhibition [2] was 5.4% and the level, % of control [3] was 0.1%. The residual binding, % of control [4] was 2.6%, the level, % of control [5] was 0% and the residual binding, % of control [6] was 100%. The inhibition [7] was 0%, the residual binding, % of control [8] was 11% and the residual binding, % of control [9] was 96%. For the same compound, the residual binding, % of control [10] was 1.9%, the residual binding, % of control [11] was 0% and the inhibition [12] was 100%. For the same compound, the residual binding, % of control [13] was 0.1%, the level, % of control [14] was 100% and the residual binding, % of control [15] was 100%. For the same compound, the residual binding, % of control [16] was 100%, the level, % of control [17] was 0% and the inhibition [18] was 100%. For the same compound, the residual binding, % of control [19] was 90%, the inhibition [20] was 84% and the level, % of control [21] was 0.25%. It also gave a residual binding, % of control [22] of 100%, a residual binding, % of control [23] of 0.2% and an inhibition [24] of 0%. The residual binding, % of control [25] was 94%, the inhibition [26] was 56% and the level, % of control [27] was 88%. For the same compound, the residual binding, % of control [28] was 0.75%, the residual binding, % of control [29] was 0.5% and the residual binding, % of control [30] was 100%. It also gave an inhibition [31] of 1.7%, a level, % of control [32] of 0.1% and a residual binding, % of control [33] of 7.1%. For the same compound, the inhibition [34] was 76%, the residual binding, % of control [35] was 2.5% and the level, % of control [36] was 7.8%. The residual binding, % of control [37] was 0.35%, the residual binding, % of control [38] was 92% and the level, % of control [39] was 0%. For the same compound, the inhibition [40] was 60% and the level, % of control [41] was 3.5%.
CCN1CCN(Cc2ccc(NC(=O)c3ccc(C)c(C#Cc4cccnc4)c3)cc2C(F)(F)F)CC1 showed a % of control [1] of 0.05%, an inhibition [2] of 2.5% and a level, % of control [3] of 1.8%. It also gave a residual binding, % of control [4] of 2.7%, a level, % of control [5] of 2.5% and a residual binding, % of control [6] of 100%. It also gave an inhibition [7] of 0.15%, a residual binding, % of control [8] of 12% and a residual binding, % of control [9] of 100%. The residual binding, % of control [10] was 2.2%, the residual binding, % of control [11] was 1.6% and the inhibition [12] was 72%. The residual binding, % of control [13] was 0.55%, the level, % of control [14] was 95% and the residual binding, % of control [15] was 100%. For the same compound, the residual binding, % of control [16] was 100%, the level, % of control [17] was 0% and the inhibition [18] was 100%. It also gave a residual binding, % of control [19] of 95%, an inhibition [20] of 54% and a level, % of control [21] of 4%. The residual binding, % of control [22] was 60%, the residual binding, % of control [23] was 0.05% and the inhibition [24] was 0.05%. It also gave a residual binding, % of control [25] of 70%, an inhibition [26] of 58% and a level, % of control [27] of 92%. The residual binding, % of control [28] was 0.85%, the residual binding, % of control [29] was 5.2% and the residual binding, % of control [30] was 100%. It also gave an inhibition [31] of 43%, a level, % of control [32] of 0.15% and a residual binding, % of control [33] of 8.2%. The inhibition [34] was 76%, the residual binding, % of control [35] was 4.5% and the level, % of control [36] was 7.4%. It also gave a residual binding, % of control [37] of 0.15%, a residual binding, % of control [38] of 100% and a level, % of control [39] of 0%. It also gave an inhibition [40] of 84% and a level, % of control [41] of 2.3%.
